In ChEMBL document CHEMBL4411300 (Eur J Med Chem, 2019):

Tests used:
Trypanosoma cruzi [1] = assay: Trypanocidal activity against Trypanosoma cruzi TINF/CH/1956/Tulahuen DTU 6 epimastigotes after 48 to 72 hrs by resazurin dye based assay; type: functional, organism-based
Trypanosoma cruzi [2] = assay: Trypanocidal activity against Trypanosoma cruzi MHOM/Pe/2011/Arequipa DTU 5 epimastigotes after 48 to 72 hrs by resazurin dye based assay; type: functional, organism-based
Trypanosoma cruzi [3] = assay: Trypanocidal activity against Trypanosoma cruzi IRHOD/CO/2008/SN3 DTU 1 epimastigotes after 48 to 72 hrs by resazurin dye based assay; type: functional, organism-based
Vero = assay: Cytotoxicity against African green monkey Vero cells assessed as reduction in cell viability after 48 to 72 hrs by resazurin dye based assay; settings: Chlorocebus sabaeus
[4] = Selectivity index, ratio of IC50 for African green monkey Vero cells to IC50 for Trypanosoma cruzi IRHOD/CO/2008/SN3 DTU 1 amastigotes infected in African green monkey Vero cells; type: toxicity; settings: read-out: Ratio IC50
[5] = Selectivity index, ratio of IC50 for African green monkey Vero cells to IC50 for Trypanosoma cruzi TINF/CH/1956/Tulahuen DTU 6 amastigotes infected in African green monkey Vero cells; type: toxicity; settings: read-out: Ratio IC50
Trypanosoma cruzi [6] = assay: Trypanocidal activity against Trypanosoma cruzi IRHOD/CO/2008/SN3 DTU 1 trypomastigotes derived from infected Balb/c albino mouse after 24 hrs by resazurin dye based assay; type: functional, organism-based; settings: IRHOD/CO/2008/SN3 DTU 1, 24 h
[7] = Selectivity index, ratio of IC50 for African green monkey Vero cells to IC50 for Trypanosoma cruzi MHOM/Pe/2011/Arequipa DTU 5 epimastigotes; type: toxicity; settings: read-out: Ratio IC50
[8] = Selectivity index, ratio of IC50 for African green monkey Vero cells to IC50 for Trypanosoma cruzi IRHOD/CO/2008/SN3 DTU 1 epimastigotes; type: toxicity; settings: read-out: Ratio IC50
Trypanosoma cruzi [9] = assay: Trypanocidal activity against Trypanosoma cruzi TINF/CH/1956/Tulahuen DTU 6 amastigotes infected in African green monkey Vero cells after 72 hrs by Giemsa-staining based microscopic assay; type: functional, organism-based; settings: TINF/CH/1956/Tulahuen DTU 6, Vero
[10] = Selectivity index, ratio of IC50 for African green monkey Vero cells to IC50 for Trypanosoma cruzi TINF/CH/1956/Tulahuen DTU 6 epimastigotes; type: toxicity; settings: read-out: Ratio IC50
[11] = Selectivity index, ratio of IC50 for African green monkey Vero cells to IC50 for Trypanosoma cruzi TINF/CH/1956/Tulahuen DTU 6 trypomastigotes derived from infected Balb/c albino mouse; type: toxicity; settings: read-out: Ratio IC50
[12] = Selectivity index, ratio of IC50 for African green monkey Vero cells to IC50 for Trypanosoma cruzi IRHOD/CO/2008/SN3 DTU 1 trypomastigotes derived from infected Balb/c albino mouse; type: toxicity; settings: read-out: Ratio IC50
Trypanosoma cruzi [13] = assay: Trypanocidal activity against Trypanosoma cruzi IRHOD/CO/2008/SN3 DTU 1 amastigotes infected in African green monkey Vero cells after 72 hrs by Giemsa-staining based microscopic assay; type: functional, organism-based; settings: IRHOD/CO/2008/SN3 DTU 1, Vero
Trypanosoma cruzi [14] = assay: Trypanocidal activity against Trypanosoma cruzi TINF/CH/1956/Tulahuen DTU 6 trypomastigotes derived from infected Balb/c albino mouse after 24 hrs by resazurin dye based assay; type: functional, organism-based; settings: TINF/CH/1956/Tulahuen DTU 6, 24 h
Trypanosoma cruzi [15] = assay: Trypanocidal activity against Trypanosoma cruzi MHOM/Pe/2011/Arequipa DTU 5 trypomastigotes derived from infected Balb/c albino mouse after 24 hrs by resazurin dye based assay; type: functional, organism-based; settings: MHOM/Pe/2011/Arequipa DTU 5, 24 h
Trypanosoma cruzi [16] = assay: Trypanocidal activity against Trypanosoma cruzi MHOM/Pe/2011/Arequipa DTU 5 amastigotes infected in African green monkey Vero cells after 72 hrs by Giemsa-staining based microscopic assay; type: functional, organism-based; settings: MHOM/Pe/2011/Arequipa DTU 5, Vero
[17] = Selectivity index, ratio of IC50 for African green monkey Vero cells to IC50 for Trypanosoma cruzi MHOM/Pe/2011/Arequipa DTU 5 amastigotes infected in African green monkey Vero cells; type: toxicity; settings: read-out: Ratio IC50
[18] = Selectivity index, ratio of IC50 for African green monkey Vero cells to IC50 for Trypanosoma cruzi MHOM/Pe/2011/Arequipa DTU 5 trypomastigotes derived from infected Balb/c albino mouse; type: toxicity; settings: read-out: Ratio IC50

For `c1ccc2cc(CNCCN(CCNCc3ccc4ccccc4c3)CCNCc3ccc4[nH]ncc4c3)ccc2c1`, the IC50 (Trypanosoma cruzi [1]) was 14.7 µM, the IC50 (Trypanosoma cruzi [2]) was 24 µM and the IC50 (Trypanosoma cruzi [3]) was 15.8 µM. The IC50 (Vero) was 22.3 µM.
Work on `NCCN(CCN)CCNCc1c2ccccc2cc2ccccc12` yielded an IC50 (Trypanosoma cruzi [1]) of 54.7 µM, an IC50 (Trypanosoma cruzi [2]) of 29.6 µM and an IC50 (Trypanosoma cruzi [3]) of 16.2 µM. For the same compound, the IC50 (Vero) was 20.5 µM.
In the case of `CN(C)c1cccc2c(S(=O)(=O)NCCN(CCN)CCN)cccc12`, the IC50 (Trypanosoma cruzi [1]) is reported as 87.4 µM, the IC50 (Trypanosoma cruzi [2]) is reported as 65.9 µM and the IC50 (Trypanosoma cruzi [3]) is reported as 101 µM. It also gave an IC50 (Vero) of 137 µM.
`c1ccc(-c2n[nH]cc2CNCCN(CCNCc2c[nH]nc2-c2ccccc2)CCNCc2c[nH]nc2-c2ccccc2)cc1` gave an IC50 (Trypanosoma cruzi [1]) of 88.2 µM, an IC50 (Trypanosoma cruzi [2]) of 72.4 µM and an IC50 (Trypanosoma cruzi [3]) of 186 µM. For the same compound, the IC50 (Vero) was 678 µM.
For `NCCN(CCN)CCNCc1ccc2ccc3cccc4ccc1c2c34`, the IC50 (Trypanosoma cruzi [1]) was 21.9 µM, the IC50 (Trypanosoma cruzi [2]) was 22.7 µM and the IC50 (Trypanosoma cruzi [3]) was 71 µM. For the same compound, the IC50 (Vero) was 33.4 µM.
Compound `NCCN(CCN)CCNCc1ccc2ccccc2c1` has a selectivity ratio [4] of 9.6, a selectivity ratio [5] of 7.7 and an IC50 (Trypanosoma cruzi [1]) of 13.6 µM. For the same compound, the IC50 (Trypanosoma cruzi [2]) was 42.5 µM, the IC50 (Trypanosoma cruzi [3]) was 8 µM and the IC50 (Trypanosoma cruzi [6]) was 18.4 µM. For the same compound, the selectivity ratio [7] was 4.8, the selectivity ratio [8] was 25.4 and the IC50 (Vero) was 202 µM. It also gave an IC50 (Trypanosoma cruzi [9]) of 26.4 µM, a selectivity ratio [10] of 14.8 and a selectivity ratio [11] of 10.6. For the same compound, the selectivity ratio [12] was 11, the IC50 (Trypanosoma cruzi [13]) was 21.1 µM and the IC50 (Trypanosoma cruzi [14]) was 19 µM.
With `NCCCNCCN(CCNCCCN)CCNCCCN` the IC50 (Trypanosoma cruzi [1]) was 202 µM, the IC50 (Trypanosoma cruzi [2]) was 128 µM and the IC50 (Trypanosoma cruzi [3]) was 124 µM. For the same compound, the IC50 (Vero) was 1180 µM.
In the case of `c1ccc2c(CNCCN(CCNCc3ccnc4ccccc34)CCNCc3ccnc4ccccc34)ccnc2c1`, the IC50 (Trypanosoma cruzi [1]) is reported as 23.5 µM, the IC50 (Trypanosoma cruzi [15]) is reported as 14.3 µM and the IC50 (Trypanosoma cruzi [2]) is reported as 11.9 µM. For the same compound, the IC50 (Trypanosoma cruzi [16]) was 20.1 µM, the selectivity ratio [17] was 9.9 and the selectivity ratio [18] was 13.9. The IC50 (Trypanosoma cruzi [3]) was 25.1 µM, the selectivity ratio [7] was 16.7 and the selectivity ratio [8] was 7.9. The IC50 (Vero) was 199 µM and the selectivity ratio [10] was 8.5.
